Measurements from PubChem BioAssay AID256 (DTP/NCI, 2004).
Where “and” joins values, the source holds several entries; their conditions need not be identical. Identical values can stand only once. Toxic doses and inconclusive results are not listed. The calls were made as follows: active = survival T/C of 150% or more; inactive = T/C below 125% in these data.

Test system: CD2F1 mice, L1210 leukemia ip, survival T/C
Experiment: NCI In Vivo Anticancer Drug Screen. Data for tumor model L1210 Leukemia (intraperitoneal) in CD2F1 (CDF1) mice
Conditions: higher = longer survival
Procedure, shortened: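 Each value reflects a quotient of treated over vehicle control outcomes in mice with a transplanted tumor.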

[1] = endpoint: mean survival time, dose: 100.0 mg/kg/injection, schedule: Q04DX003 (ip), vehicle: saline with Tween-80
[2] = endpoint: mean survival time, dose: 25.0 mg/kg/injection, schedule: Q01DX009 (ip), vehicle: saline with Tween-80
[3] = endpoint: mean survival time, dose: 50.0 mg/kg/injection, schedule: Q01DX009 (ip), vehicle: saline with Tween-80
[4] = endpoint: mean survival time, dose: 100.0 mg/kg/injection, schedule: Q01DX009 (ip), vehicle: saline with Tween-80
[5] = endpoint: mean survival time, dose: 25.0 mg/kg/injection, schedule: Q04DX003 (ip), vehicle: saline with Tween-80
[6] = endpoint: mean survival time, dose: 200.0 mg/kg/injection, schedule: Q01DX009 (ip), vehicle: saline with Tween-80
[7] = endpoint: mean survival time, dose: 400.0 mg/kg/injection, schedule: Q01DX009 (ip), vehicle: saline with Tween-80
[8] = endpoint: mean survival time, dose: 100.0 mg/kg/injection, schedule: Q01DX001 (ip), vehicle: saline with Tween-80
[9] = endpoint: mean survival time, dose: 200.0 mg/kg/injection, schedule: Q01DX001 (ip), vehicle: saline with Tween-80
[10] = endpoint: mean survival time, dose: 200.0 mg/kg/injection, schedule: Q04DX003 (ip), vehicle: saline with Tween-80
[11] = endpoint: mean survival time, dose: 400.0 mg/kg/injection, schedule: Q04DX003 (ip), vehicle: saline with Tween-80
[12] = endpoint: mean survival time, dose: 50.0 mg/kg/injection, schedule: Q01DX009 (ip), vehicle: saline
[13] = endpoint: mean survival time, dose: 100.0 mg/kg/injection, schedule: Q01DX009 (ip), vehicle: saline
[14] = endpoint: mean survival time, dose: 200.0 mg/kg/injection, schedule: Q01DX009 (ip), vehicle: saline

Measured: T/C

COC(=O)CCC(=O)c1ccccc1C
inactive: endpoint: mean survival time, dose: 100.0 mg/kg/injection, schedule: Q04DX003 (ip), vehicle: acetone 100 % of control | endpoint: mean survival time, dose: 200.0 mg/kg/injection, schedule: Q04DX003 (ip), vehicle: acetone 100 % of control

O=CO.[Mn]
inactive: endpoint: mean survival time, dose: 5.0 mg/kg/injection, schedule: Q01DX001 (ip), vehicle: saline 96 % of control | endpoint: mean survival time, dose: 10.0 mg/kg/injection, schedule: Q01DX001 (ip), vehicle: saline 101 % of control | endpoint: mean survival time, dose: 20.0 mg/kg/injection, schedule: Q01DX001 (ip), vehicle: saline 96 % of control | endpoint: mean survival time, dose: 40.0 mg/kg/injection, schedule: Q01DX001 (ip), vehicle: saline 96 % of control | endpoint: mean survival time, dose: 80.0 mg/kg/injection, schedule: Q01DX001 (ip), vehicle: saline 98 % of control

Nc1nc2ccc(CNc3ccc(C(=O)NC(CC(=O)O)C(=O)O)cc3)cc2c(=O)[nH]1 (configuration not stated)
inactive: endpoint: mean survival time, dose: 66.0 mg/kg/injection, schedule: Q04DX003 (ip), vehicle: saline with Tween-80 105 % of control | [1] 109 % of control | endpoint: mean survival time, dose: 150.0 mg/kg/injection, schedule: Q04DX003 (ip), vehicle: saline with Tween-80 105 % of control

Nc1nc(N)c2c(Cl)c(CNc3ccc(Cl)c(Cl)c3)ccc2n1
active: [2] 153 % of control | [3] 156 % of control and 188 % of control | endpoint: median survival time, dose: 25.0 mg/kg/injection, schedule: Q01DX009 (ip), vehicle: saline with Tween-80 150 % of control and 153 % of control | endpoint: median survival time, dose: 50.0 mg/kg/injection, schedule: Q01DX005 (ip), vehicle: saline with Tween-80 159 % of control | endpoint: median survival time, dose: 50.0 mg/kg/injection, schedule: Q01DX009 (ip), vehicle: saline with Tween-80 175 % of control and 198 % of control | endpoint: median survival time, dose: 83.33 mg/kg/injection, schedule: Q01DX005 (ip), vehicle: saline with Tween-80 202 % of control | endpoint: median survival time, dose: 83.63 mg/kg/injection, schedule: Q01DX005 (ip), vehicle: saline with Tween-80 230 % of control | endpoint: median survival time, dose: 138.89 mg/kg/injection, schedule: Q01DX005 (ip), vehicle: saline with Tween-80 179 % of control | endpoint: median survival time, dose: 139.39 mg/kg/injection, schedule: Q01DX005 (ip), vehicle: saline with Tween-80 151 % of control
inactive: endpoint: mean survival time, dose: 3.12 mg/kg/injection, schedule: Q01DX009 (ip), vehicle: saline with Tween-80 110 % of control | endpoint: mean survival time, dose: 3.13 mg/kg/injection, schedule: Q01DX009 (ip), vehicle: saline with Tween-80 98 % of control | endpoint: mean survival time, dose: 6.25 mg/kg/injection, schedule: Q01DX009 (ip), vehicle: saline with Tween-80 114 % of control and 115 % of control | [4] 111 % of control | endpoint: median survival time, dose: 6.25 mg/kg/injection, schedule: Q01DX009 (ip), vehicle: saline with Tween-80 102 % of control and 110 % of control | endpoint: median survival time, dose: 232.31 mg/kg/injection, schedule: Q01DX005 (ip), vehicle: saline with Tween-80 117 % of control

CNCCOc1ccc(Cl)cc1
inactive: [2] 94 % of control | [5] 96 % of control | [3] 96 % of control | endpoint: mean survival time, dose: 50.0 mg/kg/injection, schedule: Q04DX003 (ip), vehicle: saline with Tween-80 113 % of control | [4] 96 % of control | [1] 96 % of control and 97 % of control

S=c1[nH]cc2cnccn12
inactive: endpoint: mean survival time, dose: 12.5 mg/kg/injection, schedule: Q01DX009 (ip), vehicle: saline with Tween-80 92 % of control and 103 % of control | [2] 97 % of control and 100 % of control | [3] 95 % of control and 105 % of control | [4] 93 % of control and 100 % of control | [6] 104 % of control | [7] 97 % of control

CCCCCCCCCCCCC/C=N/NC(=O)c1ccc[n+](C)c1
inactive: [8] 93 % of control | [9] 98 % of control

O=c1[nH]c2ccccc2c2ccccc12
inactive: [4] 98 % of control | [6] 90 % of control | [7] 102 % of control

N#CC[CH2][Sn]([c]1ccccc1)([c]1ccccc1)[c]1ccccc1
inactive: [1] 94 % of control | [10] 91 % of control | [11] 89 % of control

O=C1C(c2ccccc2)=C(c2ccccc2)CC(c2ccccc2)C1c1ccccc1 (configuration not stated)
inactive: [1] 97 % of control | [10] 97 % of control | [11] 95 % of control

Cc1cnc(N)nc1-c1ccccc1
inactive: [8] 102 % of control | [9] 94 % of control | endpoint: mean survival time, dose: 400.0 mg/kg/injection, schedule: Q01DX001 (ip), vehicle: saline with Tween-80 94 % of control

Cc1[nH]nc(C(N)=O)c1N=NN1CCOCC1
inactive: endpoint: mean survival time, dose: 75.0 mg/kg/injection, schedule: Q01DX001 (ip), vehicle: other 101 % of control | endpoint: mean survival time, dose: 150.0 mg/kg/injection, schedule: Q01DX001 (ip), vehicle: other 106 % of control | endpoint: mean survival time, dose: 300.0 mg/kg/injection, schedule: Q01DX001 (ip), vehicle: other 109 % of control

S=[As](c1ccccc1)(c1ccccc1)c1ccccc1
inactive: endpoint: mean survival time, dose: 100.0 mg/kg/injection, schedule: Q01DX001 (ip), vehicle: saline 103 % of control | endpoint: mean survival time, dose: 200.0 mg/kg/injection, schedule: Q01DX001 (ip), vehicle: saline 100 % of control | endpoint: mean survival time, dose: 400.0 mg/kg/injection, schedule: Q01DX001 (ip), vehicle: saline 91 % of control

O=c1[nH]c(C(F)(F)F)nc2c1nc1n2CCC1
inactive: [2] 102 % of control | [3] 111 % of control | [4] 103 % of control

CN1C(=S)[N+](C)(C)N=C1[O-]
inactive: [12] 107 % of control | [13] 108 % of control | endpoint: mean survival time, dose: 100.0 mg/kg/injection, schedule: Q04DX003 (ip), vehicle: saline 100 % of control | [14] 113 % of control | endpoint: mean survival time, dose: 200.0 mg/kg/injection, schedule: Q04DX003 (ip), vehicle: saline 105 % of control | endpoint: mean survival time, dose: 400.0 mg/kg/injection, schedule: Q04DX003 (ip), vehicle: saline 101 % of control

O=C(O)CNCc1ccc2c(c1)OCCO2
inactive: endpoint: mean survival time, dose: 100.0 mg/kg/injection, schedule: Q01DX009 (ip), vehicle: Klucel (hydroxypropylcellulose) (HPC) 103 % of control | endpoint: mean survival time, dose: 200.0 mg/kg/injection, schedule: Q01DX009 (ip), vehicle: Klucel (hydroxypropylcellulose) (HPC) 98 % of control | endpoint: mean survival time, dose: 400.0 mg/kg/injection, schedule: Q01DX009 (ip), vehicle: Klucel (hydroxypropylcellulose) (HPC) 95 % of control

COC1/C=C/C=C(/C)Cc2cc(O)c(Cl)c(c2)N(C)C(=O)CC(OC(=O)C(C)C)C2(C)OC2C(C)C2CC1(O)NC(=O)O2 (configuration not stated)
inactive: endpoint: mean survival time, dose: 0.12 mg/kg/injection, schedule: Q01DX009 (ip), vehicle: saline + alcohol 111 % of control | endpoint: mean survival time, dose: 0.5 mg/kg/injection, schedule: Q01DX009 (ip), vehicle: saline + alcohol 111 % of control | endpoint: mean survival time, dose: 1.0 mg/kg/injection, schedule: Q01DX009 (ip), vehicle: saline + alcohol 122 % of control | endpoint: mean survival time, dose: 2.0 mg/kg/injection, schedule: Q01DX009 (ip), vehicle: saline + alcohol 90 % of control | endpoint: median survival time, dose: 0.06 mg/kg/injection, schedule: Q01DX009 (ip), vehicle: saline + alcohol 117 % of control | endpoint: median survival time, dose: 0.12 mg/kg/injection, schedule: Q01DX009 (ip), vehicle: saline + alcohol 117 % of control | endpoint: median survival time, dose: 0.5 mg/kg/injection, schedule: Q01DX009 (ip), vehicle: saline + alcohol 122 % of control | endpoint: median survival time, dose: 1.0 mg/kg/injection, schedule: Q01DX009 (ip), vehicle: saline + alcohol 120 % of control | endpoint: median survival time, dose: 2.0 mg/kg/injection, schedule: Q01DX009 (ip), vehicle: saline + alcohol 123 % of control

CC1C2CCC(C2)C1N (configuration not stated)
inactive: [12] 99 % of control | [13] 99 % of control | [14] 99 % of control

CN(C)CCNC1=C(Cl)C(=O)c2ccccc2C1=O
inactive: endpoint: mean survival time, dose: 6.25 mg/kg/injection, schedule: Q04DX003 (ip), vehicle: saline with Tween-80 97 % of control | endpoint: mean survival time, dose: 12.5 mg/kg/injection, schedule: Q04DX003 (ip), vehicle: saline with Tween-80 101 % of control | [5] 91 % of control and 102 % of control

CCOC(=O)C(C)(C(=O)OCC)c1cc2ccccc2c2ccccc12
inactive: endpoint: mean survival time, dose: 100.0 mg/kg/injection, schedule: Q01DX001 (ip), vehicle: Klucel (hydroxypropylcellulose) (HPC) 104 % of control | endpoint: mean survival time, dose: 200.0 mg/kg/injection, schedule: Q01DX001 (ip), vehicle: Klucel (hydroxypropylcellulose) (HPC) 104 % of control | endpoint: mean survival time, dose: 400.0 mg/kg/injection, schedule: Q01DX001 (ip), vehicle: Klucel (hydroxypropylcellulose) (HPC) 104 % of control

CCSc1ncnc2c1ncn2C1OC(CO)C(O)C1O (configuration not stated)
active: [6] 171 % of control
inactive: endpoint: mean survival time, dose: 132.0 mg/kg/injection, schedule: Q04DX003 (ip), vehicle: saline with Tween-80 122 % of control

Nc1nc(N)c2nc(COc3ccc(C(=O)NC(CCC(=O)O)C(=O)O)cc3)ccc2n1 (configuration not stated)
inactive: endpoint: mean survival time, dose: 15.63 micrograms/kg/injection, schedule: Q01DX005 (ip), vehicle: sodium bicarbonate 103 % of control and 106 % of control | endpoint: mean survival time, dose: 31.25 micrograms/kg/injection, schedule: Q01DX005 (ip), vehicle: sodium bicarbonate 120 % of control and 107 % of control | endpoint: mean survival time, dose: 62.5 micrograms/kg/injection, schedule: Q01DX005 (ip), vehicle: sodium bicarbonate 113 % of control
